The source of these data is paper PMC5234776, “Study of the Antimicrobial Activity of Tilapia Piscidin 3 (TP3) and TP4 and Their Effects on Immune Functions in Hybrid Tilapia (Oreochromis spp.)” (PLoS ONE, 2017).

≈ marks a conversion by molar mass, not a printed value. Like-named read-outs stand apart in the source and are kept apart here. Peptide text beside a SMILES is read from it.

Test [1] concerns V. vulnificus. Put plainly: Tilapia survival, co-treatment with V. vulnificus and peptide. Format: in vivo, tilapia (Oreochromis spp.). The settings on record: abdominal cavity, seven days. An excerpt: We obtained tilapia (Oreochromis spp.) from a commercial aquaculture company. The fish body lengths were 4.0±0.6 cm, and body weights were 3.1±0.3 g. The tilapia were maintained in a 2000 liter indoor aquarium at the Marine Research Station, Ilan, Taiwan. To study the efficacy with which TP3 and TP4 protect tilapia against V. vulnificus, we injected the bacteria into the abdominal cavities (peritoneum) of the tilapia using a syringe (29 Gx1/2, Terumo Medical, Elkton, MD, USA); control tilapia were injected with PBS-buffered saline. For the first trial in each group, we used 15 tilapia: (a) group 1 was injected with V. vulnificus (2×10^5 CFU/fish) only; (b) group 2 was injected with PBS only; and (c) group 3 was injected with bacterial cells (2×10^5 CFU/fish) combined with a mixture containing both TP3 and TP4 peptides (at 0.1, 1, 10, or 20 μg/fish) that had been incubated for 60 minutes at 28°C. Next, at 168 hours after the first injection, the tilapia that survived the first co-treatment were again injected with V. vulnificus (2×10^5 CFU/fish). For this second challenge, we chose tilapia with similar body weights and ages that had not been previously treated with V. vulnificus, TP3 or TP4 for the V. vulnificus-only group (control group), and we recorded the survival rate over seven days. For the third trial, each group contained 15 tilapia, each of which was injected with 20, 30, or 40 μg of TP3 or TP4 followed by V. vulnificus (2×10^5 CFU/fish) after 0.5, 1, or 2 hours. The survival rate was recorded after seven days. For the fourth trial, each group contained 15 tilapia, each of which was first injected with V. vulnificus (2×10^5 CFU/fish) and then with 20, 30, or 40 μg of TP3 or TP4 after 0.5, 1, or 2 hours; the survival rate was recorded over seven days. Each experimental group consisted of 15 fish per treatment and three replicates (triplicate groups of 15 fish per treatment). We performed multiple group comparisons by analysis of variance (ANOVA) using SPSS software, and pairwise comparisons of groups were performed using a t-test. Significant differences were indicated as *P<0.05 and **P<0.01.

For test [2], the system named is V. vulnificus. Put plainly: microbe, parasite or virus in culture. It is filed as cell-based, Vibrio vulnificus. The procedure: We determined the MICs of TP3, TP4, kanamycin, and ampicillin against V. vulnificus using a broth microdilution method in accordance with NCCLS guidelines. To measure the killing efficiencies of TP3 and TP4 against V. vulnificus, we prepared TP3 or TP4 solutions at MIC concentrations of 0.5×, 1×, and 2× and these solutions with equal volumes of V. vulnificus (1×10^6 CFU/ml) to each well of a 96-well plate. The plates were incubated at 28°C for 0, 60, 120, 180, 360, 540, 720, or 1440 minutes, and after the incubation period, 50 μL of each bacterial solution were plated on a TCBS plate to obtain viable cell counts. Broth grown in the absence of peptides was used as a negative control. The results were determined using triplicate independent experiments.
First, we determined the minimum MICs and minimum bactericidal concentrations (MBCs) of TP3 or TP4 against V. vulnificus.

Test [3] relates to V. vulnificus. Put plainly: microbe, parasite or virus in culture. It is filed as cell-based, Vibrio vulnificus. The settings on record: for antimicrobial activity in the pH 2 solution: pH 2, in words. The method, then: (§1) To understand the effects of pH on TP3 or TP4, the reagents were dissolved in ddH2O, 1 M HCl or 1 M NaOH to obtain solutions with different pH values. For the temperature-dependent functional study, the TP3 or TP4 was added to a solution in a water bath (Basic life, model BL3002, Taiwan) and incubated for 60 minutes at different temperatures (40, 60, 80, or 100°C). To evaluate the effects of TP3 and TP4 on pepsin and trypsin function, each peptide was incubated for 10 or 30 minutes with different concentrations of pepsin or trypsin (0.1, 1, or 10 μg/ml), and we determined the MIC values after incubating these solutions with cells at 28°C for 720 minutes, according to a previously described MIC experimental protocol.

The subject of test [4] is V. vulnificus. The experiment in a line: In vivo bactericidal activity, bacterial load in tilapia liver. Also noted: species or system tilapia (Oreochromis spp.). The following applies: for V. vulnificus bacterial load in the liver versus infected untreated fish: 20, 30 or 40 μg/fish, co-, pre- or post-treatment, in words; for bacterial clearance of V. vulnificus from the tilapia: after 48 hours. The method, then: Three groups of fish were used for these experiments. The first group was first injected with V. vulnificus (2×10^5 CFU/fish) followed by TP3 or TP4 peptides (20, 30, or 40 μg/fish) 0.5 hours later. A second group was first injected with TP3 or TP4 peptides (20, 30, or 40 μg/fish) and then, 0.5 hours later, with V. vulnificus (2×10^5 CFU/fish). A third group of tilapia was simultaneously injected (co-treated) with V. vulnificus (2×10^5 CFU/fish) and TP3 or TP4 peptides (20, 30, or 40 μg/fish). Liver samples were obtained from each group of tilapia at 3, 6, 9, 12, 24, and 48 hours after the final treatment and the tissues were homogenized in TSB medium before being spread onto TCBS plates. We incubated the plates at 28°C for 12 hours and then counted the number of bacterial colonies.

Test [5] relates to V. vulnificus. The experiment in a line: microbe, parasite or virus in culture. Format: cell-based, Vibrio vulnificus. The settings on record: peptide treated from room temperature to as high as 100°C; 16 hours of incubation. The procedure: as §1, with “[…],” for “and we determined the MIC values after incubating these solutions with cells at 28°C for 720 minutes,”
[6] abbreviates: co-injection of V. vulnificus and peptide 0.1 μg/fish.
The mark [7] stands for this setting: co-injection of V. vulnificus and peptide 1 μg/fish.
[8] abbreviates: co-injection of V. vulnificus and peptide 10 μg/fish.
Where [9] appears, read: co-injection of V. vulnificus and peptide 20 μg/fish.

For the molecule `CC[C@H](C)[C@H](NC(=O)[C@H](CC(C)C)NC(=O)[C@H](CO)NC(=O)[C@H](Cc1c[nH]cn1)NC(=O)[C@@H](NC(=O)[C@H](Cc1c[nH]cn1)NC(=O)[C@H](CCCCN)NC(=O)CNC(=O)[C@@H](NC(=O)[C@H](CO)NC(=O)[C@H](Cc1ccccc1)NC(=O)[C@H](CC(C)C)NC(=O)CNC(=O)CNC(=O)[C@@H](NC(=O)[C@@H](NC(=O)[C@H](Cc1c[nH]cn1)NC(=O)[C@H](Cc1c[nH]cn1)NC(=O)[C@@H](NC(=O)[C@@H](N)Cc1ccccc1)[C@@H](C)CC)[C@@H](C)CC)[C@@H](C)CC)C(C)C)[C@@H](C)CC)C(=O)N[C@@H](Cc1c[nH]cn1)C(=O)NCC(=O)N[C@@H](Cc1c[nH]cn1)C(=O)O` [TP3, tilapia piscidin 3] (H-FIHHIIGGLFSVGKHIHSLIHGH-OH), the survival rate was 0% in the test on V. vulnificus [1] (setting [6]), 0% in the test on V. vulnificus [1] (setting [7]), 73.3% with V. vulnificus [1] (setting [8]) and 95.3% with V. vulnificus [1] (setting [9]). Moreover, the MBC in the test on V. vulnificus [2] and against V. vulnificus [3] (pH 7) was 62.5 µg/mL (≈ 24.4 µM) throughout. The “antimicrobial activity in the pH 2 solution” value in the test with V. vulnificus [3] was “Neither the antibiotics nor TP3 and TP4 showed any antimicrobial activity”. Besides, the “V. vulnificus bacterial load in the liver versus infected untreated fish” value in the test with V. vulnificus [4] was “significantly lower”. In the test on V. vulnificus [4], the “bacterial clearance of V. vulnificus from the tilapia” value is on record as 100%. Further, the “concentration sufficient to eliminate V. vulnificus” value in the test with V. vulnificus [5] is 250 µg/mL.

Take `CC[C@H](C)[C@H](NC(=O)[C@H](C)NC(=O)[C@H](CCCCN)NC(=O)CNC(=O)[C@H](C)NC(=O)[C@H](CO)NC(=O)[C@H](Cc1ccccc1)NC(=O)[C@H](CC(C)C)NC(=O)CNC(=O)CNC(=O)[C@@H](NC(=O)[C@@H](NC(=O)[C@H](Cc1c[nH]cn1)NC(=O)[C@H](Cc1c[nH]cn1)NC(=O)[C@@H](NC(=O)[C@@H](N)Cc1ccccc1)[C@@H](C)CC)[C@@H](C)CC)[C@@H](C)CC)C(=O)N[C@@H](Cc1c[nH]cn1)C(=O)N[C@@H](CCCNC(=N)N)C(=O)N[C@@H](CC(C)C)C(=O)N[C@H](C(=O)N[C@@H](CCCNC(=N)N)C(=O)N[C@@H](CCCNC(=N)N)C(=O)N[C@@H](CCCNC(=N)N)C(=O)N[C@@H](CCCNC(=N)N)C(=O)N[C@@H](CCCNC(=N)N)C(=O)O)[C@@H](C)CC` [TP4, tilapia piscidin 4] (H-FIHHIIGGLFSAGKAIHRLIRRRRR-OH): the survival rate in the test on V. vulnificus [1] (setting [6]) is reported as 73.3%; with V. vulnificus [1] (setting [7]), 75%; with V. vulnificus [1] (setting [8]), 86%; in the test with V. vulnificus [1] (setting [9]), 88.9%. Moreover, the MBC in the test with V. vulnificus [2] and against V. vulnificus [3] (pH 7) was 7.8 µg/mL (≈ 2.62 µM) in each case. Also, in the test with V. vulnificus [3], the “antimicrobial activity in the pH 2 solution” value was “Neither the antibiotics nor TP3 and TP4 showed any antimicrobial activity”. Besides, the MIC with V. vulnificus [3] (pH 7) stood at 7.8 µg/mL (≈ 2.62 µM). In addition, in the test on V. vulnificus [4], the “V. vulnificus bacterial load in the liver versus infected untreated fish” value was “significantly reduced”. Besides, the “bacterial clearance of V. vulnificus from the tilapia” value with V. vulnificus [4] is 100%. In the test on V. vulnificus [5], the “concentration sufficient to eliminate V. vulnificus” value amounted to 31.2 µg/mL.
